Measured values as given in patent US7320783B2, “Methods and compositions for the enhancement of wound healing” (The Regents of the University of Michigan, priority 2002, dated 2008).

What was measured:
[1] = system: C57BL6Ksdb/db obese diabetic mouse dermal wounds; settings: topical; Livant et al. (2000) J. Clin. Invest. 105: 1537-1545; cited from earlier work
[2] = system: C57BL6Ksdb/db obese diabetic mouse dermal wounds; assay: Dermal wound healing in obese diabetic mice, topical application; type: in vivo; settings: FIG. 7
Excerpt: X axis, days since wounding. Y axis, wound area, relative to the initial wound area (13 to 19 mm^2). Db/db: healing-impaired, homozygous db/db, obese diabetic mice; db/+: normally healing, heterozygous db/+, non-diabetic littermates. Mean wound areas are shown.
Peptides are further evaluated for their ability to stimulate the diabetic wound healing. The peptides are topically applied to duplicate dermal wounds in healing-impaired obese diabetic mice (Greenhalgh et al., (1990) Am. J. Pathol. 136: 1235-1246), according to published protocols (Livant et al., (2000) J. Clin. Invest. 105: 1537-1545). Wound closure times are determined in both treated and untreated mice. To confirm the importance of the cysteine switch residue, some wounds are treated with the C to S substituted peptides. To quantitate the extent of reepithelialization for several days wounding, wounds are excised, sectioned, stained, and examined microscopically. To evaluate the provisional matrix for indications of wound contraction and angiogenesis, the presence of activated fibroblasts, collagenous fibers, microvasculature, and wound macrophages is assessed in sectioned and stained wounds for several days following wounding as described (Livant et al., (2000) J. Clin. Invest. 105: 1537-1545). These assays are performed using peptides derived from MMP 1, MMP 2, MMP 7, and MMP 9.
Each treatment group consisted of 10 mice with duplicate, dermal wounds of 12.5 to 16.5 mm^2 made in the shoulder area. Complete methods were as described (Livant et al., (2000) J. Clin. Invest. 105: 1537-1545). Treated animal were treated with 10 μg switch (PRC) sequence from MMP2 (Ac-PRCGNPDVANY-NH2) (SEQ ID NO:3). Wound areas were measured by integration of digital images.

[3] = system: human microvascular cells; assay: SU-ECM in vitro invasion assay, human microvascular cells; type: cell-based; settings: peptide 2, 6, 20, 60 ng/ml; 5% FCS; 4 hours on SU-ECM; FIG. 1
Excerpt: (§1) About 1×10^5 human microvascular cells, neonatal fibroblasts, or undifferentiated human keratinocytes were suspended in medium containing 5% fetal calf serum (FCS), mixed with varying concentrations of the MMP 7 switch peptide, Ac-PRCGVPDVAEY-NH2 (Gaire et al., (1994) J. Biol. Chem. 269: 2032-2040), function-blocking anti human MMP 1 monoclonal antibody (Birkedal-Hansen et al., (1988) Biochemistry 27; 6751-6758), or total human IgG, and placed on the surfaces of SU-ECM in vitro invasion substrates. SU-ECM invasion substrates are made as described from sea urchin embryos, and contain a blastocoelic cavity enclosed by an intact basement membrane and associated extracellular matrix (Livant et al., (1995) Cancer Research 55, 5085-5093). After 4 hours of incubation (the time necessary to observe maximal invasion percentages), the invasion percentage in each assay was determined by microscopic examination of the SU-ECM invasion substrates and their associated cells at 400-fold magnification. Invasion percentages are the ratios of the numbers of cells located on the internal surfaces of SU-ECM to the total numbers of cells in contact with either the internal or the external surfaces of SU-ECM, and multiplied by 100.
(§2) Cell culture and SU-ECM invasion assays. […]

[4] = system: human neonatal fibroblasts; assay: SU-ECM in vitro invasion assay, human neonatal fibroblasts; type: cell-based; settings: peptide 2, 6, 20, 60 ng/ml; 5% FCS; 4 hours on SU-ECM; FIG. 3
Excerpt: as §1, §2

[5] = system: undifferentiated human keratinocytes; assay: SU-ECM in vitro invasion assay, human keratinocytes; type: cell-based; settings: peptide 2, 6, 20, 60 ng/ml; 5% FCS; 4 hours on SU-ECM; FIG. 5
Excerpt: as §1, §2

[6] = one topical treatment with 10 μg just after wounding

Substance: Ac-PHSRN-NH2 (listed as Homo sapiens)
- stimulation of dermal wound healing in obese diabetic C57BL6Ksdb/db mice [1]: potent topical agent for stimulating dermal wound healing

Substance: Ac-PRCGNPDVANY-NH2 (listed as Homo sapiens) [PRC peptide]
- decrease of the time required for closure of all db/db wounds, relative to untreated db/db mice [2, 6]: 50%
- rapidity of closure of treated db/db wounds compared with db/+ non-diabetic mice [2, 6]: as rapid as that of db/+ non-diabetic mice
- enhancement of db/db wound healing (wound area relative to the initial wound area) ([2]; single topical application): enhancement

Substance: Ac-PRCGVPDVAEY-NH2 (listed as Homo sapiens) [MMP 7 switch peptide, MMP 7 prodomain cysteine switch peptide]
- induction of human microvascular cell invasion (percent of cells invaded) [3]: induces dose-dependent invasion
- induction of human neonatal fibroblast invasion (percent of fibroblasts invaded) [4]: induces dose-dependent invasion
- induction of human keratinocyte invasion (percent of keratinocytes invaded) [5]: induces dose-dependent invasion
